From ChEMBL document CHEMBL5303573, “Mapping human microbiome drug metabolism by gut bacteria and their genes” (Nature, 2019) come the findings set out here.

Data set [1] can be described thus: The drug is tested on Bacteroides finegoldii strain: DSM17565 for biotransformation. The drug concentrations were measured before and after a 12-h incubation by liquid-chromatography-coupled mass spectrometry (LC–MS). Conditions: 2 µM.
Data set [2] in a line: The drug is tested on Bifidobacterium breve strain: DSM20213 for biotransformation. The drug concentrations were measured before and after a 12-h incubation by liquid-chromatography-coupled mass spectrometry (LC–MS). Conditions: 2 µM.
Data set [3] in a line: The drug is tested on Eubacterium rectale strain: ATCC33656 for biotransformation. The drug concentrations were measured before and after a 12-h incubation by liquid-chromatography-coupled mass spectrometry (LC–MS). Conditions: agathobacter rectalis, 2 µM.
Data set [4] in a line: The drug is tested on Escherichia coli strain: BW25113 for biotransformation. The drug concentrations were measured before and after a 12-h incubation by liquid-chromatography-coupled mass spectrometry (LC–MS). The following applies: 2 µM.
Data set [5] in a line: The drug is tested on Clostridium scindens strain: ATCC35704 for biotransformation. The drug concentrations were measured before and after a 12-h incubation by liquid-chromatography-coupled mass spectrometry (LC–MS). Conditions: 2 µM.
For data set [6] the following is noted: bacteroides thetaiotaomicron, 12 h, 2 µM.
Description: The drug is tested on Bacteroides thetaiotaomicron strain: 3731 for biotransformation. The drug concentrations were measured before and after a 12-h incubation by liquid-chromatography-coupled mass spectrometry (LC–MS)
Data set [7] in a line: The drug is tested on Bacteroides cellulosilyticus strain: DSM14838 for biotransformation. The drug concentrations were measured before and after a 12-h incubation by liquid-chromatography-coupled mass spectrometry (LC–MS). Conditions: 2 µM.
Data set [8] is described as follows: The drug is tested on Bacteroides fragilis strain: ATCC43859 for biotransformation. The drug concentrations were measured before and after a 12-h incubation by liquid-chromatography-coupled mass spectrometry (LC–MS). Conditions: 2 µM.
Data set [9] is described as follows: The drug is tested on Bacteroides ovatus strain: ATCC8483 for biotransformation. The drug concentrations were measured before and after a 12-h incubation by liquid-chromatography-coupled mass spectrometry (LC–MS). The following applies: 2 µM.
The conditions of data set [10]: bacteroides fragilis, 12 h, 2 µM.
Description: The drug is tested on Bacteroides fragilis strain: NCTC 9343 for biotransformation. The drug concentrations were measured before and after a 12-h incubation by liquid-chromatography-coupled mass spectrometry (LC–MS)
For data set [11] the following is noted: bacteroides fragilis, 12 h, 2 µM. The source holds these as a separate data set.
Description: The drug is tested on Bacteroides fragilis strain: DS-208 for biotransformation. The drug concentrations were measured before and after a 12-h incubation by liquid-chromatography-coupled mass spectrometry (LC–MS)
For data set [12] the following is noted: bacteroides thetaiotaomicron, 12 h, 2 µM. The source holds these as a separate data set.
Description: The drug is tested on Bacteroides thetaiotaomicron strain: VPI-5482 for biotransformation. The drug concentrations were measured before and after a 12-h incubation by liquid-chromatography-coupled mass spectrometry (LC–MS)
Data set [13] in a line: The drug is tested on Clostridium sp. strain: fecal isolate for biotransformation. The drug concentrations were measured before and after a 12-h incubation by liquid-chromatography-coupled mass spectrometry (LC–MS). Conditions: 2 µM.
For data set [14] the following is noted: parabacteroides distasonis, 12 h, 2 µM.
Description: The drug is tested on Parabacteroides distasonis strain: ATCC8503 for biotransformation. The drug concentrations were measured before and after a 12-h incubation by liquid-chromatography-coupled mass spectrometry (LC–MS)
Data set [15] in a line: The drug is tested on Enterobacter cancerogenus strain: ATCC35316 for biotransformation. The drug concentrations were measured before and after a 12-h incubation by liquid-chromatography-coupled mass spectrometry (LC–MS). Conditions: 2 µM.
Data set [16] can be described thus: The drug is tested on Blautia luti strain: DSM14534 for biotransformation. The drug concentrations were measured before and after a 12-h incubation by liquid-chromatography-coupled mass spectrometry (LC–MS). Type of data set: ADME. Set-up: dose 2 uM, timepoint 0 vs 12 hours. The following applies: 2 µM.
A short description of data set [17]: The drug is tested on Subdoligranulum variabile strain: DSM15176 for biotransformation. The drug concentrations were measured before and after a 12-h incubation by liquid-chromatography-coupled mass spectrometry (LC–MS). The following applies: 2 µM.
Data set [18] in a line: The drug is tested on Bacteroides caccae strain: ATCC43185 for biotransformation. The drug concentrations were measured before and after a 12-h incubation by liquid-chromatography-coupled mass spectrometry (LC–MS). The following applies: 2 µM.
Data set [19] is described as follows: The drug is tested on Clostridium symbiosum strain: ATCC14940 for biotransformation. The drug concentrations were measured before and after a 12-h incubation by liquid-chromatography-coupled mass spectrometry (LC–MS). The following applies: 2 µM.
A short description of data set [20]: The drug is tested on Eubacterium hallii strain: DSM3353 for biotransformation. The drug concentrations were measured before and after a 12-h incubation by liquid-chromatography-coupled mass spectrometry (LC–MS). Conditions: anaerobutyricum hallii, 2 µM.

Non-standard residues stand in square brackets, D forms with d. Residues, ends and D or L forms follow the SMILES beside them. pGlu = O=C1CC[C@@H](C(=O)O)N1; Thz = O=C(O)[C@@H]1CSCN1

Take `CS(=O)(=O)O.O.O.O.O=C1Cc2cc(CCN3CCN(c4nsc5ccccc45)CC3)c(Cl)cc2N1` [ZIPRASIDONE MESYLATE]: the “Bacterial Biotransformation” value was “Compound NOT metabolized” in [1]; “Compound NOT metabolized” in data set [2]; “Compound NOT metabolized” in data set [3]; “Compound metabolized” in data set [4]; “Compound NOT metabolized” in data set [5]; “Compound NOT metabolized” in [6]. Also, the “Bacterial Biotransformation” value in data set [7] is given as “Compound NOT metabolized”; in data set [8], “Compound NOT metabolized”; in data set [9], “Compound metabolized”; in [10], “Compound NOT metabolized”; in [11], “Compound NOT metabolized”; in data set [12], “Compound NOT metabolized”. Also, the “Bacterial Biotransformation” value in [13] is “Compound NOT metabolized”; in [14], “Compound metabolized”; in data set [15], “Compound NOT metabolized”; in data set [16] it was “Compound NOT metabolized”; in data set [17], “Compound NOT metabolized”; in data set [18], “Compound NOT metabolized”. In addition, the “Bacterial Biotransformation” value in [19] was “Compound NOT metabolized”.

For `CN1[C@@H]2CC[C@H]1C[C@@H](OC(=O)c1c[nH]c3ccccc13)C2` [TROPISETRON], the “Bacterial Biotransformation” value in data set [1], in data set [2], in [3], in data set [4], in data set [5] and in data set [6] was “Compound NOT metabolized” in each case. Besides, the “Bacterial Biotransformation” value in data set [7], in [8], in data set [9], in [10], in data set [11] and in [12] was “Compound NOT metabolized” each time. For the same compound, the “Bacterial Biotransformation” value in data set [13], in data set [14], in data set [20], in [15], in data set [16] and in [17] was “Compound NOT metabolized” each time. Besides, the “Bacterial Biotransformation” value in data set [18] and in data set [19] was “Compound NOT metabolized” each time.

For the compound `CC[C@@]1(O)C(=O)OCc2c1cc1n(c2=O)Cc2cc3c(CN(C)C)c(O)ccc3nc2-1` [TOPOTECAN], the “Bacterial Biotransformation” value in [1], in data set [2], in [3], in data set [4], in data set [5] and in data set [6] was “Compound NOT metabolized” in each case. The “Bacterial Biotransformation” value in [7], in data set [8], in [9], in data set [10], in data set [11] and in data set [12] was “Compound NOT metabolized” in each case. Besides, the “Bacterial Biotransformation” value in [13], in data set [14], in data set [20], in data set [15], in data set [16] and in data set [17] was “Compound NOT metabolized” throughout. Also, the “Bacterial Biotransformation” value in data set [18] and in [19] was “Compound NOT metabolized” in each case.

Turning to `CCN(C)C(=O)Oc1cccc([C@H](C)N(C)C)c1.O=C(O)C(O)C(O)C(=O)O` [RIVASTIGMINE TARTRATE], the “Bacterial Biotransformation” value in data set [1], in [2], in data set [3], in data set [4], in [5] and in data set [6] was “Compound NOT metabolized” in each case. In addition, the “Bacterial Biotransformation” value in [7], in [8], in data set [11], in [12], in data set [13] and in data set [14] was “Compound NOT metabolized” throughout. Also, the “Bacterial Biotransformation” value in data set [20], in data set [15], in data set [16], in [17], in data set [18] and in data set [19] was “Compound NOT metabolized” throughout.

For the compound `C=CC[C@@H]1/C=C(\C)C[C@H](C)C[C@H](OC)[C@H]2O[C@@](O)(C(=O)C(=O)N3CCCC[C@H]3C(=O)O[C@H](/C(C)=C/[C@@H]3CC[C@@H](O)[C@H](OC)C3)[C@H](C)[C@@H](O)CC1=O)[C@H](C)C[C@@H]2OC.O` [TACROLIMUS], the “Bacterial Biotransformation” value in data set [1] is “Compound metabolized”; in data set [2] it was “Compound NOT metabolized”; in data set [3], “Compound metabolized”; in [4], “Compound metabolized”; in [5] it was “Compound metabolized”; in data set [6] it was “Compound NOT metabolized”. Also, the “Bacterial Biotransformation” value in data set [7] is “Compound metabolized”; in data set [8] it was “Compound NOT metabolized”; in [9], “Compound NOT metabolized”; in [10], “Compound metabolized”; in [11], “Compound NOT metabolized”; in data set [12], “Compound NOT metabolized”. For the same compound, the “Bacterial Biotransformation” value in data set [13], in data set [14], in data set [20], in [15], in data set [16] and in [17] was “Compound metabolized” throughout. In addition, the “Bacterial Biotransformation” value in data set [19] is “Compound metabolized”.

On to `O=C1CC[C@@H](C(=O)N2CSC[C@H]2C(=O)O)N1` [PIDOTIMOD] ([pGlu]-[Thz]-OH), for which the “Bacterial Biotransformation” value in data set [2] is given as “Compound NOT metabolized”; in data set [3], “Compound NOT metabolized”; in data set [4], “Compound NOT metabolized”; in [5], “Compound NOT metabolized”; in data set [7] it was “Compound NOT metabolized”; in data set [8] it was “Compound metabolized”. Further, the “Bacterial Biotransformation” value in data set [9], in data set [10], in [11], in [12], in data set [13] and in [14] was “Compound metabolized” in each case. Moreover, the “Bacterial Biotransformation” value in data set [20], in data set [15], in [16], in data set [17] and in data set [19] was “Compound NOT metabolized” throughout.
